# Experimental data reported in patent publication US7638525B2 (Janssen Pharmaceutica N.V., priority 2004, dated 2009).
# System: T47D human breast cancer cells
# Assay: In vitro test: alkaline phosphatase assay in T47D human breast cancer cells
# Format: cell-based
# Details: alkaline phosphatase luminescence after 24 h with compound, test concentration not given
# Method: T47D human breast cancer cells are grown in RPMI medium without phenol red (Invitrogen) containing 10% (v/v) heat-inactivated fetal bovine serum (FBS; Hyclone), 1% (v/v) penicillin-streptomycin (Invitrogen), 1% (w/v) glutamine (Invitrogen), and […] (Sigma). Incubation conditions are 37° C. in a humidified 5% (v/v) carbon dioxide environment. For assay, the cells are plated in 96-well tissue culture plates at 10,000 cells per well in assay medium [RPMI medium without phenol red (Invitrogen) containing 5% (v/v) charcoal-treated FBS (Hyclone) and 1% (v/v) penicillin-streptomycin (Invitrogen)]. Two days later, the medium is decanted and the compounds are added in a final concentration of 0.1% (v/v) dimethyl sulfoxide in fresh assay medium. Twenty-four hours later, an alkaline phosphatase assay is performed using a SEAP kit (BD Biosciences Clontech, Palo Alto, Calif.). Briefly, the medium is decanted and the cells are fixed for 30 minutes at room temperature with 5% (v/v) formalin (Sigma). The cells are washed once with room temperature Hank's buffered saline solution (Invitrogen). Equal volumes (0.05 mL) of 1× Dilution Buffer, Assay Buffer and 1:20 substrate/enhancer mixture are added. After 1-hour incubation at room temperature in the dark, the lysate is transferred to a white 96-well plate (Dynex) and luminescence is read using a LuminoSkan Ascent (Thermo Electron, Woburn, Mass.).
row,Structure (SMILES),% inhibition
1,"O=C(c1ccc(Cl)c(Cl)c1)c1cc(-c2ccncc2)c(N2CCC3(CC2)OCCO3)s1 [Example 1, (3,4-Dichloro-phenyl)-[5-(1,4-dioxa-8-aza-spiro[4.5]-dec-8-yl)-4-pyridin-4-yl-thiophen-2-yl]-methanon]",6%
2,"O=C(c1ccc(Cl)cc1)c1cc(-c2ccncc2)c(N2CCC3(CC2)OCCO3)s1 [Example 3, (4-Chloro-phenyl)-[5-(1 4-dioxa-8-aza-spiro[4.5]-dec-8-yl)-4-pyridin-4-yl-thiophen-2-yl]-methanone]",27%
3,"O=C(c1ccccc1)c1cc(-c2ccncc2)c(N2CCC3(CC2)OCCO3)s1 [Example 6, [5-(1,4-Dioxa-8-aza-spiro[4.5]-dec-8-yl)-4-pyridin-4-yl-thiophen-2-yl]-phenyl-methanone]",34%
4,"O=C1CCN(c2sc(C(=O)c3ccc(F)cc3)cc2-c2ccncc2)CC1 [Example 13, 1-[5-(4-Fluoro-benzoyl)-3-pyridin-4-yl-thiophen-2-yl]-piperidin-4-one]",46%
5,O=C1CCN(c2sc(C(=O)c3cccc([N+](=O)[O-])c3)cc2-c2ccncc2)CC1 [Example 19],29%
6,"O=C1CCN(c2sc(C(=O)c3ccccc3)cc2-c2ccncc2)CC1 [Example 11, 1-(5-Benzoyl-3-pyridin-4-yl-thiophen-2-yl)-piperidin-4-one]",35%
7,"O=C1CCN(c2sc(C(=O)c3ccc(Cl)cc3)cc2-c2ccncc2)CC1 [Example 16, 1-[5-(4-Chloro-benzoyl)-3-pyridin-4-yl-thiophen-2-yl]-piperidin-4-one]",30%
8,"O=C1CCN(c2sc(C(=O)c3cc(C(F)(F)F)cc(C(F)(F)F)c3)cc2-c2ccncc2)CC1 [Example 14, 1-[5-(3,5-Bis-trifluoromethyl-benzoyl)-3-pyridin-4-yl-thiophen-2-yl]-piperidin-4-one]",57%
9,"O=C(c1cc(C(F)(F)F)cc(C(F)(F)F)c1)c1cc(-c2ccncc2)c(N2CCC3(CC2)OCCO3)s1 [Example 8, (3,5-Bis-trifluoromethyl-phenyl)-[5-(1 4-dioxa-8-aza-spiro[4.5]-dec-8-yl)-4-pyridin-4-yl-thiophen-2-yl]-methanone]",0%
10,"O=C1CCN(c2sc(C(=O)c3ccc([N+](=O)[O-])cc3)cc2-c2ccncc2)CC1 [Example 17, 1-[5-(4-Nitro-benzoyl)-3-pyridin-4-yl-thiophen-2-yl]-piperidi n-4-one]",30%
11,"COc1ccccc1C(=O)c1cc(-c2ccncc2)c(N2CCC3(CC2)OCCO3)s1 [Example 9, [5-(1,4-Dioxa-8-aza-spiro[4.5]-dec-8-yl)-4-pyridin-4-yl-thiophen-2-yl]-(2-methoxy-phenyl)-methanone]",30%
12,"COc1ccccc1C(=O)c1cc(-c2ccncc2)c(N2CCC(=O)CC2)s1 [Example 15, 1-[5-(2-Methoxy-benzoyl)-3-pyridin-4-yl-thiophen-2-yl]-piperidin-4-one]",39%
13,"O=C(c1cccc(Br)c1)c1cc(-c2ccncc2)c(N2CCC3(CC2)OCCO3)s1 [Example 10, (3-Bromo-phenyl)-[5-(1,4-dioxa-8-aza-spiro[4.5]-dec-8-yl)-4-pyridin-4-yl-thiophen-2-yl]-methanone]",42%
14,"O=C1CCN(c2sc(C(=O)c3cccc(Br)c3)cc2-c2ccncc2)CC1 [Example 20, 1-[5-(3-Bromo-benzoyl)-3-pyridin-4-yl-thiophen-2-yl]-piperidin-4-one]",23%
15,"O=C(c1ccc([N+](=O)[O-])cc1)c1cc(-c2ccncc2)c(N2CCC3(CC2)OCCO3)s1 [Example 4, [5-(1 4-Dioxa-8-aza-spiro[4.5]-dec-8-yl)-4-pyridin-4-yl-thiophen-2-yl]-(4-nitro-phenyl)-methanone]",0%
16,"CCC(=O)c1cc(-c2ccncc2)c(N2CCC3(CC2)OCCO3)s1 [Example 5, 1-[5-(1,4-Dioxa-8-aza-spiro[4.5]-dec-8-yl)-4-pyridin-4-yl-thiophen-2-yl]-1-one]",0%
17,"COc1cccc(C(=O)c2cc(-c3ccncc3)c(N3CCC(=O)CC3)s2)c1 [Example 12, 1-[5-(3-Methoxy-benzoyl)-3-pyridin-4-yl-thiophen-2-yl]-piperidin-4-one]",24%
18,"CCC(=O)c1cc(-c2ccncc2)c(N2CCC(=O)CC2)s1 [Example 18, 1-(5-Propionyl-3-pyridin-4-yl-thiophen-2-yl)-piperidin-4-one]",26%
19,"O=C(c1ccc(F)cc1)c1cc(-c2ccncc2)c(N2CCC3(CC2)OCCO3)s1 [Example 2, [5-(1,4-Dioxa-8-aza-spiro[4.5]-dec-8-yl)-4-pyridin-4-yl-thiophen-2-yl]-(4-fluoro-phenyl)-methanone]",15%
20,"COc1cccc(C(=O)c2cc(-c3ccncc3)c(N3CCC4(CC3)OCCO4)s2)c1 [Example 7, [5-(1,4-Dioxa-8-aza-spiro[4.5]-dec-8-yl)-4-pyridin-4-yl-thiophen-2-yl-](3-methoxy-phenyl)-methanone]",42%
